Results on 2 molecules are retold here after patent publication US10010619B2, “Bipartite inhibitors of bacterial RNA polymerase” (priority 2011, dated 2018).

In brackets after ≈: the same amount, converted by molar mass. Like-named read-outs stand apart in the source and are kept apart here. A value given as a limit tells only on which side of the number the result lay.

Test [1] concerns the target T1, rifamycin-resistant Escherichia coli RNAP derivative ([Asn516]β-RNAP) (Escherichia coli, UniProt P0A8V2, D516N).
T1 construct: made in house
The experiment in a line: Fluorescence-detected RNA polymerase assay, rifamycin-resistant RNAP derivative. The format is biochemical. As for the experimental part: (§1) Fluorescence-detected RNA polymerase assays with E. coli RNA polymerase were performed by a modification of the procedure of Kuhlman et al., 2004 [Kuhlman, P., Duff, H. and Galant, A. (2004) A fluorescence-based assay for multisubunit DNA-dependent RNA polymerases. Anal. Biochem. 324, 183-190]. Reaction mixtures contained (20 μl): 0-100 nM test compound, 75 nM Escherichia coli RNA polymerase σ^70 holoenzyme or Escherichia coli RNA polymerase σ^70 holoenzyme derivative (prepared as in Feklistov, A., Mekler, V., Jiang, Q., Westblade, L., Irschik, H., Jansen, R., Mustaev, A., Darst, S., and Ebright, R. (2008) Proc. Natl. Acad. Sci. USA 105, 14820-14825), 20 nM 384 bp DNA fragment containing the bacteriophage […] N25 promoter, 100 μM ATP, 100 μM GTP, 100 μM UTP, 100 μM CTP, 50 mM Tris-HCl, pH 8.0, 100 mM KCl, 10 mM MgCl2, 1 mM DTT, 10 μg/ml bovine serum albumin, and 5.5% glycerol. Reaction components other than DNA and NTPs were pre-incubated for 10 min at 37° C. Reactions were carried out by addition of DNA and incubation for 5 min at 37° C., followed by addition of NTPs and incubation for 60 min at 37° C. DNA was removed by addition of 1 μl 5 mM CaCl2 and 2 U DNaseI (Ambion, Inc.), followed by incubation for 90 min at 37° C. RNA was quantified by addition of 100 μl RiboGreen RNA Quantitation Reagent (Invitrogen, Inc.; 1:500 dilution in Tris-HCl, pH 8.0, 1 mM EDTA), followed by incubation for 10 min at 25° C., followed by measurement of fluorescence intensity [excitation wavelength=485 nm and emission wavelength=535 nm; QuantaMaster QM1 spectrofluorimeter (PTI, Inc.)]. IC50 is defined as the concentration of inhibitor resulting in 50% inhibition of RNA polymerase activity.

Test [2] concerns Acinetobacter baumannii ATCC 19606. The experiment in a line: Broth microdilution MIC, A. baumannii. It is filed as cell-based. The conditions noted are these: ATCC19606. The text has this:
(§2) Minimum inhibitory concentrations (MICs) for Staphylococcus aureus ATCC 12600, Enterococcus faecalis ATCC 19433, Acinetobacter baumannii ATCC 19606, and Escherichia coli D21f2tolc (Fralick, J. and Burns-Keliher, L. (1994) J. Bacteriol. 176, 6404-6406) were quantified using broth microdilution assays as described [Clinical and Laboratory Standards Institute (CLSI/NCCLS) (2009) Methods for Dilution Antimicrobial Susceptibility Tests for Bacteria That Grow Aerobically; Approved Standard, Eighth Edition. CM Document M07-A8 (CLIS, Wayne Pa.)].
In general terms: In broth dilution the organism is exposed to a series of concentrations in liquid medium.

The target of test [3] is T2, GE23077-resistant Escherichia coli RNAP derivative ([Asp565]β-RNAP) (Escherichia coli, UniProt P0A8V2, E565D).
T2 construct: made in house
The experiment in a line: biochemical. As for the experimental part:
as §1, with “Reactions were carried out by addition of DNA and incubation for 5 min at 37° C., followed by addition of NTPs and incubation for 60 min at 37° C. DNA was removed by addition of 1 μl 5 mM CaCl2 and 2 U DNaseI (Ambion, Inc.), followed by incubation for 90 min at 37° C.” left out, “IC50 is defined as the concentration of inhibitor resulting in 50% inhibition of RNA polymerase activity.” left out

Test [4] relates to Escherichia coli D21f2tolC. The experiment in a line: Broth microdilution MIC, E. coli D21f2tolC. The format is cell-based.
Source text: as §2

The subject of test [5] is Enterococcus faecalis ATCC 19433. The test can be described thus: Broth microdilution MIC, E. faecalis. The conditions noted are these: ATCC19433. The format is cell-based.
Source text: as §2

The test system of test [6] is Staphylococcus aureus ATCC 12600. The test can be described thus: Broth microdilution MIC, S. aureus. It is filed as cell-based. The conditions noted are these: ATCC12600.
Source text: as §2

Consider `CO[C@H]1/C=C/O[C@@]2(C)Oc3c(C)c(O)c4c(O)c(cc(O)c4c3C2=O)NC(=O)/C(C)=C\C=C\[C@H](C)[C@H](O)[C@@H](C)[C@@H](O)[C@@H](C)[C@H](OC(C)=O)[C@@H]1C` [rifamycin SV, reference compound], for which, in test [1] (read-out: IC50, rifamycin-resistant derivative of Escherichia coli RNAP [Asn516]β RNAP), the IC50 was 12000 nM.

Consider `CO[C@H]1/C=C/O[C@@]2(C)Oc3c(C)c(O)c4c(O)c(c(NC(C)C(C)C(=O)NCC5NC(=O)CNC(=O)C(O)CNC(=O)C(C(C)O)NC(=O)C(C(O)C(O)C(N)=O)NC(=O)C(C(C)C)CC(=O)C(CO)NC5=O)c(O)c4c3C2=O)NC(=O)/C(C)=C\C=C\[C@H](C)C(O)C(C)[C@@H](O)[C@@H](C)[C@H](OC(C)=O)[C@@H]1C` (stereo partly drawn) [compound 3, {rifamycin SV}-NH-{descarboxy-GE23077}], for which the MIC in test [2] worked out at 10 µg/mL (≈ 6.8 µM); in test [4], 2 µg/mL (≈ 1.36 µM); in test [5] it was 6 µg/mL (≈ 4.08 µM); in test [6], 0.05 µg/mL (≈ 0.034 µM). For the same molecule, the IC50 is 150 nM in test [1] and 20 nM in test [3]. Also, the “potency relative to rifamycin SV on [Asn516]β RNAP” value in test [1] (ratio of IC50s, times higher than rifamycin SV) is recorded as 80 times. For the same molecule, the “potency relative to GE23077 on [Asp565]β RNAP” value in test [3] (ratio of IC50s, times higher than GE23077) was > 5,000 times.

By IC50 is commonly meant the concentration that inhibits the measured activity by half. The MIC is the least concentration at which growth counts as inhibited. Read a low MIC as inhibition by little substance.
